Measurements published in US20070072903A1, “Altering the concentration of intracellular agents by p2x7 receptor modulation” (priority 2003, published 2007).

What was measured:
P2X7 receptor [1] = target: T1, P2X7 receptor (Mus musculus, UniProt Q9Z1M0); assay: PS translocation (annexin V binding) in murine lymphocytes, real-time flow cytometry; format: cell-based
T1 construct: Murine mesenteric lymph nodes (10^7/ml) were disaggregated in DMEM; from tissue; host or cells: murine mesenteric lymph node lymphocytes (CD4+, CD8+ T cells, B cells)
T1 sequence (Q9Z1M0 1-595): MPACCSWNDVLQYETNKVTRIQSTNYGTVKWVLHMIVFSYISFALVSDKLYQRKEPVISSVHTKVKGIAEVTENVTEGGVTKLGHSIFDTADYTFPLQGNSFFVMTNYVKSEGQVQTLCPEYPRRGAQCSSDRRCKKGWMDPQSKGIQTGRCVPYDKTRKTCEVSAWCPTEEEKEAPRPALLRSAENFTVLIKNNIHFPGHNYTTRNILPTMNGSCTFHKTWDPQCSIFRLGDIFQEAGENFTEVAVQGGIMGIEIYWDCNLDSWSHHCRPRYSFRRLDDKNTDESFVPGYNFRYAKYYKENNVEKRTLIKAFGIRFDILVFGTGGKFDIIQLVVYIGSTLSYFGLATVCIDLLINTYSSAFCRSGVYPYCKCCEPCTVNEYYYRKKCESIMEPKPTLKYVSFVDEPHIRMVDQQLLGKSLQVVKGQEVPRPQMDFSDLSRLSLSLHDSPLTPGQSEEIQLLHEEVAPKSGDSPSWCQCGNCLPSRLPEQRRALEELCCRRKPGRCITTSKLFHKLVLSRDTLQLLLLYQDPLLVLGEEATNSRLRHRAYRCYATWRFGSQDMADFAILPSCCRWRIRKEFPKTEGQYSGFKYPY
From the text: Murine mesenteric lymph nodes (10^7/ml) were disaggregated in DMEM. To discriminate between different lymphocyte subsets, cells were stained with CD4^APC, CD4^CYCHROME, CD4^PE, CD4^FITC, CD8^APC, CD8^PE, CD8^PERCP, CD8^FITC, B220^APC (Becton Dickinson, Cailf.) antibodies as indicated. The fluorophore on antibodies used to identify CD4^+ and CD8^+T cells was varied in some experiments to avoid overlap between emission spectra of the antibody-conjugated fluorochromes and fluorescent transport substrates. Cells were washed with DMEM and analysed by flow cytometry (CellQuest software—Becton Dickinson). Live cells were gated by eye on the basis of forward scatter and side scatter. […]
To measure drug uptake the following fluorochromes were used (from Molecular Probes, Leiden, Netherlands, unless stated): 0.2 μM BODIPY-taxol (BT), 0.25 μM Rh123, 0.2 μM mitoxantrone (Sigma). PS exposure was monitored simultaneously in the same population of cells by increased binding of annexin V as follows. Cells were equilibrated with annexin V^FITC, annexin V^PE, or annexin V^CY5 (AV—Becton Dickinson, Cailf.) together with propidium iodide (PI) for four minutes, and analysed by flow cytometry on a FACScalibur machine using CellQuest software (Becton Dickinson, Cailf.). […] Cells were monitored for BT uptake or PS exposure continuously in real time for up to 15 minutes, as indicated. […]

P-gp [2] = assay: Rh123 uptake (P-gp activity) in murine lymphocytes, real-time flow cytometry; format: cell-based, mouse; conditions: 0.25 μM Rh123, 150 μM BzATP; CD4+, CD8+ and B cells
From the text: Murine mesenteric lymph nodes (10^7/ml) were disaggregated in DMEM. To discriminate between different lymphocyte subsets, cells were stained with CD4^APC, CD4^CYCHROME, CD4^PE, CD4^FITC, CD8^APC, CD8^PE, CD8^PERCP, CD8^FITC, B220^APC (Becton Dickinson, Cailf.) antibodies as indicated. The fluorophore on antibodies used to identify CD4^+ and CD8^+T cells was varied in some experiments to avoid overlap between emission spectra of the antibody-conjugated fluorochromes and fluorescent transport substrates. Cells were washed with DMEM and analysed by flow cytometry (CellQuest software—Becton Dickinson). Live cells were gated by eye on the basis of forward scatter and side scatter. Lymphocytes lacking CD4 and CD8 were defined as B cells.
Lymphocytes were labelled with anti-CD4^CYCHROME and anti-CD8^APC antibodies to discriminate between CD4^+T cells, CD8^+T cells and B cells (CD4^− CD8^−). The lymphocytes were incubated with annexin V^PE, and then 0.25 μM Rh123 and 150 μM BzATP were added sequentially (as indicated in the Figures by arrows).

P-gp [3] = assay: BODIPY-taxol uptake in NIH3T3-MDR and parental NIH3T3 cells, continuous FACS analysis; format: cell-based, mouse; conditions: 175 μM BzATP, which lack the P2X7 receptor
Experimental: To measure drug uptake the following fluorochromes were used (from Molecular Probes, Leiden, Netherlands, unless stated): 0.2 μM BODIPY-taxol (BT), 0.25 μM Rh123, 0.2 μM mitoxantrone (Sigma). […] Baseline fluorescence was established for approximately one minute prior to addition of 150 μM (unless otherwise stated) 2′-3′-O-(4-benzoylbenzoyl)-adenosine 5′-triphosphate (BzATP, Sigma). Cells were monitored for BT uptake or PS exposure continuously in real time for up to 15 minutes, as indicated.
BODIPY-taxol (BT) and 175 μM BzATP were added to NIH3T3-MDR and parental NIH3T3 cells at times indicated by arrows. BT uptake was monitored by continuous FACS analysis, as an increase in fluorescence as a function of time.

P-gp [4] = assay: BODIPY-taxol uptake in mixed mdr1a/b-deficient and parental CD8+ lymphocytes; format: cell-based, mouse; conditions: mdr-deficient versus wild type CD8+ lymphocytes
From the text: Mice were between 6 and 14 weeks of age. When experiments utilised FVB.mdr1a/b^−/− mice, age-matched FVB mice were used.
In a further experiment, lymphocytes from mdr1a/b-deficient or parental mice (mdr1a/b^+/+) were labelled with anti-CD8^PE and anti-CD8^PERCP antibodies, respectively (to discriminate between CD8^+ cells from each mouse during subsequent analysis). […]

P2X7 receptor [5] = target: T2, P2X7 receptor (Rattus norvegicus, UniProt Q64663); format: cell-based; conditions: HEK 293 cells expressing both P-gp and P2X7 receptor
T2 construct: expressed in transfected cells; transiently co-transfected with MDR1 cDNA
T2 sequence (Q64663 1-595): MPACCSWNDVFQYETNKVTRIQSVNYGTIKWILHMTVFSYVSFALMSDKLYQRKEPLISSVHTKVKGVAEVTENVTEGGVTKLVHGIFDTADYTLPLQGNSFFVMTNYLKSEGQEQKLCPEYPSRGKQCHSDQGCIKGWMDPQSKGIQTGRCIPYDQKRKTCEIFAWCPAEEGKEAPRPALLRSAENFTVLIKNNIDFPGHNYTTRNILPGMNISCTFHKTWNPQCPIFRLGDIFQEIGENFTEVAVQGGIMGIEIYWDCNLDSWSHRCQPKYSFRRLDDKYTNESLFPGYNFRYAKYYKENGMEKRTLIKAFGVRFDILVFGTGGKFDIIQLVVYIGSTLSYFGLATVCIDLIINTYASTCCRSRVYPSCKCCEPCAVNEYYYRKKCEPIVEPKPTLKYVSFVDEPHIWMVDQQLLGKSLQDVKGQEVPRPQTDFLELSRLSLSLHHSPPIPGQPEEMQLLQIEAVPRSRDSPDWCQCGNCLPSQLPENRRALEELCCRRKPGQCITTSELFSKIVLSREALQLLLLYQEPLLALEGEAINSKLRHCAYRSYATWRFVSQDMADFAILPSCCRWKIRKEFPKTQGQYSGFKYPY
Experimental: (§1) NIH 3T3 cells stably transfected with the human MDR1 gene (Ueda et al, 1987 Proc. Natl. Acad. Sci. USA 84, 3004-3008) were a gift from Michael Gottesman (NIH, Bethesda) and were maintained in 1 μg/ml colchicine in Dulbecco's modified Eagle's medium (DMEM—Sigma). HEK 293 cells stably transfected with rP2X7 have been described elsewhere (Wilson et al, 2002 J. Biol. Chem. 277, 34017-34023). Transient transfection of HEK293 cells was performed using polyethyleneimine (Sigma), as described previously (Dixon et al, 2000 Hum. Mol. Genet. 9, 1209-1217). pMDR1-wt, which encodes wild-type P-gp, has also been described previously (Blott et al, 1999 EMBO J. 18, 6800-6808). Expression of the MDR1 gene product, P-gp, on transfected cells was determined by labelling of cells with UIC2^PE in the presence of cyclosporine A (Sigma), as described by Mechetner et al, (1997 Proc. Natl. Acad. Sci. 94, 12908-12913).
(§2) To measure drug uptake the following fluorochromes were used (from Molecular Probes, Leiden, Netherlands, unless stated): 0.2 μM BODIPY-taxol (BT), 0.25 μM Rh123, 0.2 μM mitoxantrone (Sigma). PS exposure was monitored simultaneously in the same population of cells by increased binding of annexin V as follows. […] Cells were monitored for BT uptake or PS exposure continuously in real time for up to 15 minutes, as indicated. […]

P2X7 receptor [6] = format: cell-based; conditions: HEK 293 cells expressing P-gp but lacking P2X7 receptors
Experimental: as §1, §2

P-gp [7] = assay: BODIPY-taxol uptake in HEK 293 cells with or without P2X7, transiently transfected with MDR1; format: cell-based; conditions: HEK 293 cells expressing both P-gp and P2X7 receptor
[8] = tested on: breast cancer resistance protein (abcg2); assay: Mitoxantrone uptake in mdr1a/b-deficient lymphocytes; format: cell-based, mouse; conditions: 0.2 μM mitoxantrone
[9] = tested on: mdr1a/b-deficient CD4+ and CD8+ T cells; assay: BODIPY-taxol uptake in mdr1a/b-deficient T cells; format: cell-based, mouse; conditions: 175 μM BzATP
Experimental: To measure drug uptake the following fluorochromes were used (from Molecular Probes, Leiden, Netherlands, unless stated): 0.2 μM BODIPY-taxol (BT), 0.25 μM Rh123, 0.2 μM mitoxantrone (Sigma). PS exposure was monitored simultaneously in the same population of cells by increased binding of annexin V as follows. Cells were equilibrated with annexin V^FITC, annexin V^PE, or annexin V^CY5 (AV—Becton Dickinson, Cailf.) together with propidium iodide (PI) for four minutes, and analysed by flow cytometry on a FACScalibur machine using CellQuest software (Becton Dickinson, Cailf.). Baseline fluorescence was established for approximately one minute prior to addition of 150 μM (unless otherwise stated) 2′-3′-O-(4-benzoylbenzoyl)-adenosine 5′-triphosphate (BzATP, Sigma). Cells were monitored for BT uptake or PS exposure continuously in real time for up to 15 minutes, as indicated. Continuous line graphs of changes in annexin V binding and fluorochrome uptake were plotted using FCSPress software (FCSPress.com, Cambridge, UK).
Mitoxantrone (Mx) or Mx plus BzATP, were added as indicted by arrows. Mitoxantrone uptake was measured as an increase in mean (±S.E.) fluorescence (FL-4 channel). […] BODIPY-taxol uptake was measured as an increase in mean (±S.E.) fluorescence (FL-1 channel). […] Only the responses of live cells (i.e. those excluding PI) were subsequently analysed.

P2X7-HEK 293 cells = assay: BODIPY-taxol uptake in HEK 293 and P2X7-HEK 293 cells; format: cell-based; conditions: 150 μM BzATP
Experimental: as §1, §2

[10] = tested on: plasma membrane permeability; assay: Propidium uptake after BzATP stimulation (non-specific membrane permeability); format: cell-based, mouse; conditions: BzATP-mediated stimulation; data omitted for brevity
[11] = injected into the hindpaw of rats at 100 nmol/50 μl; cited from earlier work
P-gp [12] = assay: Annexin V trapping of PS after brief BzATP stimulation, BODIPY-taxol uptake in mdr1a/b-deficient and parental lymphocytes; format: cell-based, mouse; conditions: BzATP 45 seconds, washed, annexin V for 30 minutes to trap PS in the outer leaflet
Experimental: In this example, the inventors compared the uptake of BODIPY-taxol by parental and mdr1a/b-deficient lymphocytes, briefly stimulated with BzATP either in the continuous presence of annexin V to ‘trap’ PS in the outer leaflet, or with annexin V added only shortly before acquisition. The results are shown in FIGS. 4A-D. The experiments were performed as described below. Lymphocytes from mdr1a/b-deficient or parental mice (mdr1a/b^+/+) were labelled with anti-CD8^PE and anti-CD8^CY antibodies, respectively (to discriminate between CD8^+ cells from each mouse during subsequent analysis). […] BODIPY-taxol uptake was then measured by real-time flow cytometry. Reduced BT uptake indicates enhanced P-gp activity; increased annexin^CY5 binding indicates increased PS translocation from the inner to outer leaflet of the membrane. […] As PS exposure in samples stained with annexin V for four minutes immediately following stimulation (not shown) was equivalent to that in cells incubated for 30 minutes, PS trapping by annexin V appeared to be effectively complete.

Molecule: 2′-3′-O-(4-benzoylbenzoyl)-adenosine 5′-triphosphate [BzATP]
- PS translocation (annexin V binding) (P2X7 receptor [1]; 150 μM BzATP, CD4+ T cells, CD8+ T cells and B cells): stimulated PS translocation with the order of responsiveness CD4^+ cells>CD8^+ T cells>>B cells
- PS translocation (P2X7 receptor [1]; mdr1a/b-deficient lymphocytes): induced PS translocation
- P-gp activity (uptake of Rh123) (P-gp [2]): order of responsiveness was CD4^+>CD8^+>>B cells
- P-gp activity (BT accumulation) (P-gp [3]): did not inhibit P-gp activity and thus did not increase BT accumulation
- BT uptake following BzATP treatment (P-gp [4]): rapidly reached equivalence in the mdr-deficient and wild type cells
- PS translocation (P2X7 receptor [5]): induced PS translocation
- PS translocation (P2X7 receptor [6]): neither induced PS translocation
- BODIPY-taxol uptake (P-gp inhibition) (P-gp [7]): increased BODIPY-taxol uptake
- uptake of mitoxantrone [8]: markedly increased uptake of mitoxantrone
- rate of uptake of BODIPY-taxol [9]: increased the rate of uptake
- rate of uptake of BODIPY-taxol (P2X7-HEK 293 cells): increased the rate of uptake
- uptake of propidium ions [10]: did not result in an increased uptake of propidium ions
- toxicity [11]: non-toxic

B1: annexin V: substance which binds to phosphatidylserine and retains it in the outer leaflet (protein, UniProt P08758 2-320, looked up)
Annexin A5: AQVLRGTVTDFPGFDERADAETLRKAMKGLGTDEESILTLLTSRSNAQRQEISAAFKTLFGRDLLDDLKSELTGKFEKLIVALMKPSRLYDAYELKHALKGAGTNEKVLTEIIASRTPEELRAIKQVYEEEYGSSLEDDVVGDTSGYYQRMLVVLLQANRDPDAGIDEAQVEQDAQALFQAGELKWGTDEEKFITIFGTRSVSHLRKVFDKYMTISGFQIEETIDRETSGNLEQLLLAVVKSIRSIPAYLAETLYYAMKGAGTDDHTLIRVMVSRSEIDLFNIRKEFRKNFATSLYSMIKGDTSGDYKKALLLLCGEDD
- restoration of P-gp activity (P-gp [12]): prevents the restoration of P-gp activity
